Assay results from PMC6995558, “Biological Evaluation, Molecular Docking, and SAR Studies of Novel 2-(2,4-Dihydroxyphenyl)-1H- Benzimidazole Analogues” (Biomolecules, 2019).

What was measured:
[1] = target: T1, AChE (Homo sapiens, UniProt P22303); test: Kinetic characterization of AChE inhibition (Lineweaver–Burk); assay type: biochemical; details: for υmax: AChE; for Type of AChE inhibition: Lineweaver–Burk plots analysis
T1 construct: Acetylcholinesterase (AChE, E.C. 3.1.1.7, from human erythrocytes); purchased Sigma-Aldrich (Steinheim, Germany); host or cells: human erythrocytes (natural source)
T1 sequence (P22303 32-617 isoform P22303-2 limits assumed): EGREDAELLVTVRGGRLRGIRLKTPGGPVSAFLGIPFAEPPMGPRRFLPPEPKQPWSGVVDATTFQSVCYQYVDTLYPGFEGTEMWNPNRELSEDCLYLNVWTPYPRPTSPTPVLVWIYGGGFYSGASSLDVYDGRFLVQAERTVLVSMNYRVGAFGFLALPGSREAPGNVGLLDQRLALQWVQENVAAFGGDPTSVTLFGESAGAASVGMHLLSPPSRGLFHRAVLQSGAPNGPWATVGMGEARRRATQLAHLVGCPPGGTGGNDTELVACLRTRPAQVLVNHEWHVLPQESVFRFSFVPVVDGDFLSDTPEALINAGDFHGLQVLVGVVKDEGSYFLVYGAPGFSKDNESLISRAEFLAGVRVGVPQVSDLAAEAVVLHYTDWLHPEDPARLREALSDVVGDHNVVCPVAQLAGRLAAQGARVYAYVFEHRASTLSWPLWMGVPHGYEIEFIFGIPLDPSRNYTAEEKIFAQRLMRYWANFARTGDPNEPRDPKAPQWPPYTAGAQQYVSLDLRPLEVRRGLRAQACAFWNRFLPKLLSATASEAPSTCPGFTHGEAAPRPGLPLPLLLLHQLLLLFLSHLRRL
Protocol: The kinetic analysis was evaluated according to the Ellman’s method. Plots of 1/velocity versus the reciprocal substrate concentration were constructed at different final concentrations of the ATC iodide in the range of 100–10 µM. […] The tested medium contained DTNB solution (0.4 mg/mL), AChE solution (2 U/mL) or BuChE solution (4 U/mL), solution of the examined compound, and different concentrations of the ATC iodide substrate solution. Absorbance was detected at 412 nm at room temperature after 7 min. The obtained data were calculated and presented on the Lineweaver–Burk plot. The determined the Michaelis-Menten constant (KM) and the maximum velocity of the enzyme (υmax) values were used to define the type of enzyme inhibition.
The mechanism of AChE inhibition was investigated for inhibitors 1 and 5 as the most valuable compounds. […]

[2] = target: T2, Acetylcholinesterase (AChE, E.C. 3.1.1.7, from human erythrocytes) (Homo sapiens, UniProt P22303); test: biochemical; assay type: biochemical; details: for Selectivity for AChE: IC50(BuChE)/IC50(AChE); for IC50: means ± SD of three independent experiments
T2 construct: Acetylcholinesterase (AChE, E.C. 3.1.1.7, from human erythrocytes); purchased Sigma-Aldrich (Steinheim, Germany); host or cells: human erythrocytes (natural source)
T2 sequence (P22303 32-617 isoform P22303-2 limits assumed): as above
Protocol: (§1) The details were described previously.
(§2) Their potency was determined using the modified Ellman’s method and expressed as the half of maximal inhibitory concentration, IC50 [34].

[3] = target: T3, Amyloid β-peptide (1–42) (Aβ42) (Homo sapiens, UniProt P05067); test: biochemical; details: ThT fluorescence, 24 h at 37 °C; means ± SD of three experiments; read-out: IC50(Aβ(1–42)) self-induced aggregation
T3 construct: Amyloid β-peptide, (1–42) (Aβ42), was purchased from Aldrich; purchased Aldrich
T3 sequence (P05067 672-713 limits assumed): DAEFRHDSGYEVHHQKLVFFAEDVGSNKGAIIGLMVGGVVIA
Protocol: Amyloid β-peptide, (1–42) (Aβ42), was purchased from Aldrich. Aβ42 was diluted in the phosphate buffer (pH 8.0) to obtain a 125.8 µM solution. The compounds under study were first dissolved in a small amount of methanol, and then further diluted in the phosphate buffer to the final concentration of 5–160 μM. To study the Aβ42 aggregation inhibition, the fluorescence emission of thioflavin T (ThT) was followed with curcumin as the reference compound [35, 36]. At first, the Aβ42 (10 μL) samples and the tested compounds (10 μL) were diluted with the phosphate buffer (60 μL) and then they were incubated for 24 h at 37 °C without stirring. As for the control, a sample of the peptide was incubated without the inhibitor. The tests were carried out in black, flat-bottom, 96-well plates. Then 20 µL of 2.5 µM ThT in 50 mM glycine–NaOH (pH 8.5) was added and incubated for 5 min. Fluorescence was monitored with the excitation at 446 nm and the emission at 490 nm. A time scan of fluorescence was performed and the intensity values reached the plateau (300 s). […]. The reported values were obtained as the mean ± SD of triplicate of three independent experiments.
Nowadays, the amyloid hypothesis has become the dominating paradigm for understanding AD [44]. Aβ(1–42) is the most amyloidogenic Aβ fragment found in the AD plaques. […].

[4] = target: T4, butyrylcholinesterase (BuChE, E.C. 3.1.1.8, from equine serum) (Equus caballus, UniProt P81908); test: biochemical; details: means ± SD of three experiments; read-out: BuChE IC50
T4 construct: butyrylcholinesterase (BuChE, E.C. 3.1.1.8, from equine serum); purchased Sigma-Aldrich (Steinheim, Germany); host or cells: equine serum (natural source)
T4 sequence (P81908 whole entry): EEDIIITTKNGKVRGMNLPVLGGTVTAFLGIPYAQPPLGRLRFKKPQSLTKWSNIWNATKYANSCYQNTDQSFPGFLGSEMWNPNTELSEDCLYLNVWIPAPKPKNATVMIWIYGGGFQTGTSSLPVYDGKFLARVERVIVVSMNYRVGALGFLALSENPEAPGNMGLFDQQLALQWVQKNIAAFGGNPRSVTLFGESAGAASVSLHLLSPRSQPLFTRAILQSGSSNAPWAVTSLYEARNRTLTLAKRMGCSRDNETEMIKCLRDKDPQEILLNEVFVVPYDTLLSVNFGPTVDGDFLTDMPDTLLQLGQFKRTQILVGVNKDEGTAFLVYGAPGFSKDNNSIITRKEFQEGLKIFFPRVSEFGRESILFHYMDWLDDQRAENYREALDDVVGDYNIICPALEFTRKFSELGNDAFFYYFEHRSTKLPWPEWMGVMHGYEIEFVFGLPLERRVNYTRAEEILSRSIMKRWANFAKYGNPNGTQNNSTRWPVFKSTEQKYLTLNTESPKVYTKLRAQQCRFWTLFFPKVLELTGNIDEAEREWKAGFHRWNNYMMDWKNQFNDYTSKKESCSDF
Protocol: as §1, §2

[5] = In vitro antioxidant activity assay (DPPH radical scavenging); details: DPPH 100 μM in methanol, 37 °C, 30 min; means ± SD of three experiments; read-out: IC50(DPPH) radical scavenging effect
Protocol: Antioxidant activity of each compound and standards (rutin) was assessed based on the radical scavenging effect of stable DPPH free radical. An amount of 10 μL of each tested compound or standard series of different concentrations (from 0.0 to 100 µM) was added to 9 mL of methanol solution of 2,2-diphenyl-1-picrylhydrazyl (DPPH) (100 μM). After incubation at 37 °C for 30 min, decrease in the absorbance of each solution was measured at 520 nm. The absorbance of the blank sample containing the same amount of DMSO and DPPH solution was also prepared and measured. All experiments were conducted in triplicate. The scavenging potential was compared with a solvent control (0% radical scavenging) and the standard compound. Radical scavenging activity (%AA) was calculated by the following formula: (%AA) = [(A0 − A1)/A0] × 100%(3) in which (A0) is the absorbance of the blank sample and (A1) is the absorbance of the tested compound (t = 30 min).
Reactive oxygen species are a causal factor in the process of aging and the cumulative damage has been associated with AD [45]. In this study, the DPPH radical scavenging activity of the newly synthesized compounds was estimated using the Brand-Williams method.

[6] = RP-18 HPLC chromatography lipophilicity estimation; assay type: physicochemical; details: for −S (slope): methanol/acetate buffer pH 4.0; for log kw (intercept): methanol/acetate buffer pH 4.0, extrapolated to pure water
Protocol: The Eurosil Bioselect C18 (5 μm, 300 × 4.6 mm) column was used as the stationary phase. The mobile phase consisted of different volume mixtures of methanol and 20 mM acetate buffer as the aqueous phase to give pH 4.0. The organic modifier concentration ranged from 0.30 to 0.75, depending on the structure of the compound at 0.05 (0.1) intervals. The flow rate was 0.5 cm^3·min^−1 at room temperature. Measurements were made at 292 nm. The retention time of an unretained solute (t0) was determined by the injection of a small amount of acetone dissolved in water. […] This is described by the Soczewiński–Wachtmeister dependence: log k = log kw + S (% organic modifier)(1) in which log kw is the retention factor of a solute with pure water as the mobile phase (intercept) and S is the regression curve (slope). The log k values were calculated as log k = log (tR − t0)/t0, where tR is the retention time of a solute and t0 is the retention time of an unretained solute.
To find the structure–activity relationships, some quantities of the compounds were estimated (Table 5). They included the lipophilicity parameter log kw obtained by RP-HPLC and calculated in silico log P, the topological polar surface area (tPSA), and the molar refractivity (MR) (Table 5). The log kw and S parameters obtained by the extrapolation technique are commonly used as lipophilicity descriptors.

[7] = target: T5, BuChE (Equus caballus, UniProt P81908); test: Kinetic characterization of BuChE inhibition (Lineweaver–Burk); assay type: biochemical; details: for υmax: BuChE; for Mechanism of BuChE inhibition: Lineweaver–Burk plots analysis
T5 construct: butyrylcholinesterase (BuChE, E.C. 3.1.1.8, from equine serum); purchased Sigma-Aldrich (Steinheim, Germany); host or cells: equine serum (natural source)
T5 sequence (P81908 whole entry): as above
Protocol: The kinetic analysis was evaluated according to the Ellman’s method. Plots of 1/velocity versus the reciprocal substrate concentration were constructed at different final concentrations of the ATC iodide in the range of 100–10 µM. The studies were carried out using the final concentrations of 1 inhibitor: (AChE: 0.25, 1.0 µM; BuChE: 0.25, 1.2 µM) and 5 (AChE: 0.1, 1.0 µM; BuChE: 0.25, 0.55 µM) and without it. The tested medium contained DTNB solution (0.4 mg/mL), AChE solution (2 U/mL) or BuChE solution (4 U/mL), solution of the examined compound, and different concentrations of the ATC iodide substrate solution. Absorbance was detected at 412 nm at room temperature after 7 min. The obtained data were calculated and presented on the Lineweaver–Burk plot. The determined the Michaelis-Menten constant (KM) and the maximum velocity of the enzyme (υmax) values were used to define the type of enzyme inhibition.
The mechanism of AChE inhibition was investigated for inhibitors 1 and 5 as the most valuable compounds. The Lineweaver–Burk plots present 1/velocity versus 1/substrate concentrations in the range of 100–10 µM for compounds 5 (0.1, 1.0 µM) and 1 (0.25, 1.0 µM) and without inhibitors (0 µM) (Figure 2).

[8] = inhibitor concentration 0.25 µM

SMILES | υmax ([1]; inhibitor concentration 0.25 μM) | υmax ([1]; inhibitor concentration 1.0 μM) | Type of AChE inhibition [1] | Activity against AChE (in words) [2] | Selectivity for AChE [2] | IC50 [2] | IC50 [3] | IC50 [4] | IC50 [5] | −S (slope) [6] | log kw (intercept) [6] | υmax [7, 8] | υmax ([7]; inhibitor concentration 1.2 µM) | Mechanism of BuChE inhibition [7] | υmax ([1]; inhibitor concentration 0.15 μM) | υmax ([7]; inhibitor concentration 0.55 µM)
Oc1cc(O)c(-c2nc3ccccc3[nH]2)cc1Cl [Compound 1, 4-(1H-benzimidazol-2-yl)-6-chlorobenzene-1,3-diol] | 135.14 A min^−1 | 105.26 A min^−1 | mixed type of inhibition | active | 55.8 | 76 ± 2 nM | 48000 ± 3430 nM | 4240 ± 205 nM | 641 ± 30 nM | 3.896 | 3.602 | 322.58 A min^−1 | 163.93 A min^−1 | the same relationships as in the case of AChE | – | –
COc1ccc2nc(-c3ccc(O)c(C)c3O)[nH]c2c1 [Compound 5, 4-(6-Methoxy-1H-benzimidazol-2-yl)-2-methylbenzene-1,3-diol] | – | 120.48 A min^−1 | mixed type of inhibition | active | 1.4 | 86 ± 21 nM | 33100 ± 2070 nM | 117 ± 41 nM | 627 ± 110 nM | 5.179 | 4.591 | 196.08 A min^−1 | – | the same relationships as in the case of AChE | 175.44 A min^−1 | 178.57 A min^−1
